Source: the supplement of paper PMC11208160
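Further: IS621 bridge recombinase in Escherichia coli cells against a fixed T5 target plasmid.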

Assay: recombinant UMI read abundance after kanamycin selection (control-corrected) (log10(CPM+1)); higher = more efficient recombination; extreme values may be limits of the assay; sequences stand for … in AGTGCAGAGAAAATCGGCCAGTTTTCTCTGCCTGCAGTCCGCATGCCGTGGGACCCCTTGGGTTCTAACCTGTTGCCTAGATTTATGCAGCGGACTGCCTTTCTCCCAAAGTGATAAACCGG…AGGTTGGTTTCACT; site = the 11-nt donor
In short: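 The measure is log10(CPM+1) for recombinant UMIs. These were PCR-amplified across the donor–target junction and sequenced after Escherichia coli carrying a donor and donor-binding-loop pair library and a target plasmid with T7-inducible IS621 bridge recombinase was plated on IPTG (0.07 mM) plus kanamycin or unselected. CPM were averaged over two replicates and scaled by control-derived factors.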
For “TAATGAGCATGGACCGGTTTTCCCGGTAATCCGTATTTGGG (site CAATGAGCTCC)”, the “recombinant UMI read abundance (log10)” value was 0.0721.
With “TAATGAGCATGGACCGGTTTTCCCGGTAATCCGTATTTGGG (site GAATGAGCTCC)” the “recombinant UMI read abundance (log10)” value was 0.00249.
For “TAATGAGCATGGACCGGTTTTCCCGGTAATCCGTATTTGGG (site TAAAGAGCTCC)”, the “recombinant UMI read abundance (log10)” value was 0.00438.
In the case of “TAATGAGCATGGACCGGTTTTCCCGGTAATCCGTATTTGGG (site TAACGAGCTCC)”, the “recombinant UMI read abundance (log10)” value is reported as 0.0128.
For “TAATGAGCATGGACCGGTTTTCCCGGTAATCCGTATTTGGG (site TAAGGAGCTCC)”, the “recombinant UMI read abundance (log10)” value was 0.0167.
With “TAATGAGCATGGACCGGTTTTCCCGGTAATCCGTATTTGGG (site TAATAAGCTCC)” the “recombinant UMI read abundance (log10)” value was 0.0171.
For “TAATGAGCATGGACCGGTTTTCCCGGTAATCCGTATTTGGG (site TAATCAGCTCC)”, the “recombinant UMI read abundance (log10)” value was 0.0102.
For “TAATGAGCATGGACCGGTTTTCCCGGTAATCCGTATTTGGG (site TAATGAACTCC)”, the “recombinant UMI read abundance (log10)” value was 0.0101.
With “TAATGAGCATGGACCGGTTTTCCCGGTAATCCGTATTTGGG (site TAATGACCTCC)” the “recombinant UMI read abundance (log10)” value was 0.00784.
For “TAATGAGCATGGACCGGTTTTCCCGGTAATCCGTATTTGGG (site TAATGAGCTAC)”, the “recombinant UMI read abundance (log10)” value was 0.0203.
With “TAATGAGCATGGACCGGTTTTCCCGGTAATCCGTATTTGGG (site TAATGAGCTCA)” the “recombinant UMI read abundance (log10)” value was 0.00405.
With “TAATGAGCATGGACCGGTTTTCCCGGTAATCCGTATTTGGG (site TAATGAGCTCC)” the “recombinant UMI read abundance (log10)” value was 0.304.
With “TAATGAGCATGGACCGGTTTTCCCGGTAATCCGTATTTGGG (site TAATGAGCTCG)” the “recombinant UMI read abundance (log10)” value was 0.0101.
In the case of “TAATGAGCATGGACCGGTTTTCCCGGTAATCCGTATTTGGG (site TAATGAGCTCT)”, the “recombinant UMI read abundance (log10)” value is reported as 0.0248.
With “TAATGAGCATGGACCGGTTTTCCCGGTAATCCGTATTTGGG (site TAATGAGCTGC)” the “recombinant UMI read abundance (log10)” value was 0.
For “TAATGAGCATGGACCGGTTTTCCCGGTAATCCGTATTTGGG (site TAATGAGCTTC)”, the “recombinant UMI read abundance (log10)” value was 0.0139.
In the case of “TAATGAGCATGGACCGGTTTTCCCGGTAATCCGTATTTGGG (site TAATGATCTCC)”, the “recombinant UMI read abundance (log10)” value is reported as 0.
In the case of “TAATGAGCATGGACCGGTTTTCCCGGTAATCCGTATTTGGG (site TAATGCGCTCC)”, the “recombinant UMI read abundance (log10)” value is reported as 0.00982.
For “TAATGAGCATGGACCGGTTTTCCCGGTAATCCGTATTTGGG (site TAATGGGCTCC)”, the “recombinant UMI read abundance (log10)” value was 0.0142.
For “TAATGAGCATGGACCGGTTTTCCCGGTAATCCGTATTTGGG (site TAATGTGCTCC)”, the “recombinant UMI read abundance (log10)” value was 0.
With “TAATGAGCATGGACCGGTTTTCCCGGTAATCCGTATTTGGG (site TAATTAGCTCC)” the “recombinant UMI read abundance (log10)” value was 0.00449.
In the case of “TAATGAGCATGGACCGGTTTTCCCGGTAATCCGTATTTGGG (site TACTGAGCTCC)”, the “recombinant UMI read abundance (log10)” value is reported as 0.00582.
With “TAATGAGCATGGACCGGTTTTCCCGGTAATCCGTATTTGGG (site TAGTGAGCTCC)” the “recombinant UMI read abundance (log10)” value was 0.0336.
With “TAATGAGCATGGACCGGTTTTCCCGGTAATCCGTATTTGGG (site TATTGAGCTCC)” the “recombinant UMI read abundance (log10)” value was 0.0136.
In the case of “TAATGAGCATGGACCGGTTTTCCCGGTAATCCGTATTTGGG (site TCATGAGCTCC)”, the “recombinant UMI read abundance (log10)” value is reported as 0.203.
With “TAATGAGCATGGACCGGTTTTCCCGGTAATCCGTATTTGGG (site TGATGAGCTCC)” the “recombinant UMI read abundance (log10)” value was 0.00873.
In the case of “TAATGAGCATGGACCGGTTTTCCCGGTAATCCGTATTTGGG (site TTATGAGCTCC)”, the “recombinant UMI read abundance (log10)” value is reported as 0.0156.
For “TAATGCTCATGGACCGGTTTTCCCGGTAATCCGTATTTGAA (site AAATGCTCTTT)”, the “recombinant UMI read abundance (log10)” value was 0.111.
In the case of “TAATGCTCATGGACCGGTTTTCCCGGTAATCCGTATTTGAA (site CAATGCTCTTT)”, the “recombinant UMI read abundance (log10)” value is reported as 0.61.
With “TAATGCTCATGGACCGGTTTTCCCGGTAATCCGTATTTGAA (site GAATGCTCTTT)” the “recombinant UMI read abundance (log10)” value was 0.106.
For “TAATGCTCATGGACCGGTTTTCCCGGTAATCCGTATTTGAA (site TAATGCTCTTT)”, the “recombinant UMI read abundance (log10)” value was 1.19.
For “TAATGTCCATGGACCGGTTTTCCCGGTAATCCGTATTTGTA (site TAAAGTCCTTA)”, the “recombinant UMI read abundance (log10)” value was 0.459.
